Results reported in the OligoGym collection.
Only the 19 paired bases of each siRNA are shown; overhangs and chemistry are not given here.
Note: test concentration or dose not given here.

These substances were tested against DBI (assay: five studies, different assays). Settings: siRNA.
With “sense AAGAUGCCAUGAAAGCUUA / antisense UAAGCUUUCAUGGCAUCUU” the target inhibition was 50.7%. “sense AAGAGCUAAAGAAAAAAUA / antisense UAUUUUUUCUUUAGCUCUU” showed a target inhibition of 68%. “sense AAAGUAGAAGAGCUAAAGA / antisense UCUUUAGCUCUUCUACUUU” gave a target inhibition of 71.8%. “sense AGAUGCCAUGAAAGCUUAC / antisense GUAAGCUUUCAUGGCAUCU” gave a target inhibition of -9.13%. Substance “sense UGGGAUGCCUGGAAUGAGC / antisense GCUCAUUCCAGGCAUCCCA” has a target inhibition of 4.9%. “sense AAACGAUUACUGACUUUCC / antisense GGAAAGUCAGUAAUCGUUU” gave a target inhibition of -18.6%. In the case of “sense UUACUGACUUUCCUUGAGU / antisense ACUCAAGGAAAGUCAGUAA”, the target inhibition was -8.35%. With “sense ACUGAGACAAUGCCUUGUU / antisense AACAAGGCAUUGUCUCAGU” the target inhibition was 6.01%. With “sense UGAAAGCUUACAUCAACAA / antisense UUGUUGAUGUAAGCUUUCA” the target inhibition was 33.7%.

Each substance was assayed against PLK1 (assay: five studies, different assays). Settings: siRNA.
In the case of “sense CAGUUUCGAGGUGGAUGUG / antisense CACAUCCACCUCGAAACUG”, the target inhibition was 52.6%. For “sense AGAAUGAAUACAGUAUUCC / antisense GGAAUACUGUAUUCAUUCU”, the target inhibition was 58%. “sense GAUGUCCAUGGAAAUAUCC / antisense GGAUAUUUCCAUGGACAUC” gave a target inhibition of 43.9%. Substance “sense AUGACUCAACACGCCUCAU / antisense AUGAGGCGUGUUGAGUCAU” has a target inhibition of 58.4%. For “sense AGAUCACCCUCCUUAAAUA / antisense UAUUUAAGGAGGGUGAUCU”, the target inhibition was 72.5%. “sense UAUUUCCGCAAUUACAUGA / antisense UCAUGUAAUUGCGGAAAUA” was tested, and the target inhibition was 57.1%. “sense AUGAAGAUCUGGAGGUGAA / antisense UUCACCUCCAGAUCUUCAU” showed a target inhibition of 55%. “sense AGAUUGUGCCUAAGUCUCU / antisense AGAGACUUAGGCACAAUCU” was tested, and the target inhibition was 68.5%. “sense GGGCGGCUUUGCCAAGUGC / antisense GCACUUGGCAAAGCCGCCC” gave a target inhibition of 30.6%. “sense UUUGAGACUUCUUGCCUAA / antisense UUAGGCAAGAAGUCUCAAA” showed a target inhibition of 82.2%.

The substances below were run against Renilla luciferase (assay: five studies, different assays). Settings: siRNA.
With “sense GAAUUUGCAGCAUAUCUUG / antisense CAAGAUAUGCUGCAAAUUC” the target inhibition was 84.8%. In the case of “sense UCUACGUGCAAGUGAUGAU / antisense AUCAUCACUUGCACGUAGA”, the target inhibition was 89.5%. With “sense CAGCAUAUCUUGAACCAUU / antisense AAUGGUUCAAGAUAUGCUG” the target inhibition was 83.7%. With “sense AGAUGCACCUGAUGAAAUG / antisense CAUUUCAUCAGGUGCAUCU” the target inhibition was 63.9%. “sense AAGUGUAGUAGAUGUGAUU / antisense AAUCACAUCUACUACACUU” gave a target inhibition of 87.9%. “sense GAUCAAAUCUGAAGAAGGA / antisense UCCUUCUUCAGAUUUGAUC” showed a target inhibition of 90.9%. “sense UUUAUGGCGACAUGUUGUG / antisense CACAACAUGUCGCCAUAAA” gave a target inhibition of 29.4%. “sense GAACAAAGGAAACGGAUGA / antisense UCAUCCGUUUCCUUUGUUC” gave a target inhibition of 84.4%. Work on “sense AUCAUGAGAAAGUUAGAAC / antisense GUUCUAACUUUCUCAUGAU” yielded a target inhibition of 47.3%. With “sense AGUUCGUCGUCCAACAUUA / antisense UAAUGUUGGACGACGAACU” the target inhibition was 66.5%.
